Here are results for 10 molecules from patent publication US9115149B2, “Heterocyclic compounds as inhibitors of fatty acid biosysnthesis for bacterial infections” (Vitas Pharma Research Private Limited, priority 2011, dated 2015).

A word on the AUC: it is concentration integrated over time. Higher therefore signals more exposure. A word on the Cmax: it is the maximum level reached in the sampled fluid or tissue. One may read the clearance as the volume of plasma or blood freed of the substance per unit of time. One may read the half-life as how long it takes for the measured level to halve. The low end stands for rapid decline, the high end for slow decline. A word on the bioavailability: it is dose-corrected exposure relative to a reference, in per cent.

Data set [1] relates to Staphylococcus aureus (ATCC29213). Nature of the data set: MIC by microbroth dilution, methicillin sensitive S. aureus. In kind it is cell-based. The following applies: read-out: Minimum inhibitory concentration (MIC) Staphylococcus aureus (ATCC29213). How it is done: (§1) Shown below are the biological activities of representative compounds of the invention. The compounds were tested by the microbroth dilution method (National committee for Clinical Laboratory Standards, M07-A8, Volume 29, 2009) to determine the Minimum Inhibitory Concentration (MIC) against Methicillin sensitive and resistant Staphylococcus aureus. The MICs in the presence of 10% BSA was also tested. Further, select compounds were tested for metabolic stability using mouse liver microsomes based on published protocols (Journal of Biological Sciences, 2008, 8, 1110-1114).

The subject of data set [2] is Methicillin resistant Staphylococcus aureus (ATCC 33591). Nature of the data set: MIC by microbroth dilution, methicillin resistant S. aureus. The format is cell-based. The settings on record: ATCC33591, read-out: Minimum inhibitory concentration (MIC) Methicillin resistant Staphylococcus aureus (ATCC 33591). How it is done:
as §1

Data set [3] shares this test system. Nature of the data set: MIC in the presence of BSA. In kind it is cell-based. The settings on record: ATCC33591, 10% BSA. How it is done: as §1
Data set [4] in a line: Metabolic stability in mouse liver microsomes. The format is in vitro ADME. How it is done: as §1
Data set [5] concerns Bacillus subtilis (ΔFabI, ΔFabL; Pxylose SaFabI). Briefly: Target specificity: MIC in B. subtilis expressing S. aureus FabI under xylose inducible promoter. The format is cell-based. How it is done: To test for target specificity, the MIC was determined in a Bacillus subtilis strain in which the two FabI homologues (FabI and FabL) were deleted and replaced with S. aureus FabI (Sa FabI) under a Xylose inducible promoter. By varying the amount of xylose in the growth medium, the expression of FabI was proportionately modified. Compounds specifically targeting Sa FabI show an increased MIC when higher amounts of FabI are present in the cell (high Xylose concentrations). In contrast, when FabI levels are low, the cell becomes hypersusceptible, reducing the MIC (low Xylose concentrations). […] Shown below are data for target specificity.

A short description of data set [6]: Pharmacokinetic profile in male Swiss albino mice. The following applies: mouse, in vivo; for AUC / Cmax / clearance / half-life: intravenous single dose 5 mg/kg body weight; for bioavailability: po. How it is done: The following compounds were dosed to male Swiss albino mice to determine the pharmacokinetic profiles.
Data set [7] relates to MRSA ATCC33591. Nature of the data set: Systemic infection model in mice. The format is in vivo. The settings on record: 50 mg/kg body weight for 3 days, 2 doses per day. How it is done:
In order to evaluate the in vivo efficacy of the scaffold, we tested representative compounds for activity in the systemic infection model in mice (Antimicrobial Agents and Chemotherapy, 47, 2507-2512, 2003). In this model, a 15× medial lethal dose of the bacteria (MRSA ATCC33591) was administered to mice intraperitoneally. 1 hour later, VT-02-00068 was administered i.v. at doses of 30, 10 and 3 mg/kg body weight. The compound was administered again 4 hours later. A total of 5 doses were administered, i.e. 2 doses on day 0, 2 on day 1 and 1 on day 2. […] The survival was 100, 100 and 65% at 30, 10 and 3 mg/kg body weight respectively.
VT-02-00044 was tested using the same protocol. The compound was dosed at 50 mg/kg body weight for 3 days, 2 doses per day.

Setting [8] is: read-out: MIC in the presence of 0.005% Xylose (low Xylose concentration).
Where [9] appears, read: read-out: MIC in the presence of 0.5% Xylose (high Xylose concentration).

The structures appear in SMILES notation. ≈ marks a conversion by molar mass, not a printed value. Where two headings read alike, the source gives them in different places.

On to `CCC1(CC)C(=O)Nc2ncc(/C=C/C(=O)N(C)Cc3cc4ccccc4n3C)cc21` [VT-02-00064, (E)-3-(3,3-diethyl-2-oxo-2,3-dihydro-1H-pyrrolo[2,3-b]pyridin-5-yl)-N-methyl-N-((1-methyl-1H-indol-2-yl)methyl)acrylamide], for which the MIC in data set [1] came out at 120 ng/mL (≈ 0.288 µM). Further, the MIC in data set [2] is 120 ng/mL (≈ 0.288 µM). Further, the MIC in data set [3] came to 1000 ng/mL. Also, in data set [4], the “Metabolic stability (mouse liver microsomes) % of compound remaining after 30 minutes” value is 18%. Moreover, the MIC in data set [5] (setting [8]) is 30 ng/mL. Moreover, the MIC in data set [5] (setting [9]) is 250 ng/mL. In data set [6], this molecule gave an exposure (AUC) of 1400 ng·h/mL, a Cmax of 1810 ng/mL, a clearance of 59.4 mL/min/kg and a half-life of 26.4 min. The same molecule returned a bioavailability in data set [6] of 51.5%.
On to `CCn1c(=O)[nH]c2ncc(/C=C/C(=O)N(C)Cc3cc4ccccc4n3C)cc21` [VT-02-00044, (E)-3-(1-ethyl-2-oxo-2,3-dihydro-1H-imidazo[4,5-b]pyridin-6-yl)-N-methyl-N-((1-methyl-1H-indol-2-yl)methyl)acrylamide], for which the MIC in data set [1] turned out to be 500 ng/mL (≈ 1.28 µM). Besides, the MIC in data set [2] turned out to be 1000 ng/mL (≈ 2.57 µM). The MIC in data set [3] is 2000 ng/mL. Also, the “Metabolic stability (mouse liver microsomes) % of compound remaining after 30 minutes” value in data set [4] was found to be 50%. Further, in data set [5] (setting [8]), the MIC is less than 1.9 ng/mL. Besides, in data set [5] (setting [9]), the MIC was found to be 15 ng/mL. Also, in data set [6], the AUC worked out at 1040 ng·h/mL, the peak level (Cmax) was 949 ng/mL, the clearance came out at 75.9 mL/min/kg and the half-life is 99 min. The same molecule came in with a bioavailability in data set [6] of 29%. This molecule came in with a Survival in data set [7] of 100%.
In the case of `Cc1c(CN(C)C(=O)/C=C/c2cnc3c(c2)C2(CCC2)C(=O)N3)sc2ccccc12` [VT-02-00073, (E)-N-methyl-N-((3-methylbenzo[b]thiophen-2-yl)methyl)-3-(2′-oxo-1′,2′-dihydrospiro[cyclobutane-1,3′-pyrrolo[2,3-b]pyridine]-5′-yl)acrylamide], the MIC in data set [1] worked out at 15 ng/mL (≈ 0.0359 µM). In addition, the MIC in data set [2] is 15 ng/mL (≈ 0.0359 µM). Further, the MIC in data set [3] was 250 ng/mL. Also, the “Metabolic stability (mouse liver microsomes) % of compound remaining after 30 minutes” value in data set [4] amounted to 11%. Moreover, the MIC in data set [5] (setting [8]) worked out at 0.00381 ng/mL. Further, the MIC in data set [5] (setting [9]) is 0.97 ng/mL. In data set [6], this molecule gave an AUC of 7320 ng·h/mL, a Cmax of 4380 ng/mL, a clearance of 11.1 mL/min/kg and a half-life of 113 min. The bioavailability in data set [6] was 38.5%.
As for `CCC1(CC)C(=O)Nc2ncc(/C=C/C(=O)N(C)Cc3oc4ccccc4c3C)cc21` [VT-02-00071, (E)-3-(3,3-diethyl-2-oxo-2,3-dihydro-1H-pyrrolo[2,3-b]pyridin-5-yl)-N-methyl-N-((3-methylbenzofuran-2-yl)methyl)acrylamide], in data set [1], the MIC was 15 ng/mL (≈ 0.0359 µM). In data set [2], the MIC stood at 15 ng/mL (≈ 0.0359 µM). Moreover, in data set [3], the MIC turned out to be 250 ng/mL. The “Metabolic stability (mouse liver microsomes) % of compound remaining after 30 minutes” value in data set [4] worked out at 12%. The MIC in data set [5] (setting [8]) was 0.000477 ng/mL. In addition, in data set [5] (setting [9]), the MIC stood at 0.06 ng/mL. In data set [6], the area under the curve (AUC) amounted to 1220 ng·h/mL, the Cmax turned out to be 1550 ng/mL, the clearance was determined as 67.8 mL/min/kg and the half-life is 31.2 min. Besides, in data set [6], the bioavailability amounted to 26%.
For the molecule `CCC1(CC)C(=O)Nc2ncc(/C=C/C(=O)N(C)Cc3sc4ccccc4c3C)cc21` [VT-02-00078, (E)-3-(3,3-diethyl-2-oxo-2,3-dihydro-1H-pyrrolo[2,3-b]pyridin-5-yl)-N-methyl-N-((3-methylbenzo[b]thiophen-2-yl)methyl)acrylamide], the MIC was 15 ng/mL (≈ 0.0346 µM) in data set [1]; 15 ng/mL (≈ 0.0346 µM) in data set [2]; 250 ng/mL in data set [3]; less than 2.98e-05 ng/mL in data set [5] (setting [8]); 1.91e-05 ng/mL in data set [5] (setting [9]). The “Metabolic stability (mouse liver microsomes) % of compound remaining after 30 minutes” value in data set [4] is on record as 15%. This molecule returned an AUC in data set [6] of 1410 ng·h/mL. The molecule further yielded a clearance in data set [6] of 58.5 mL/min/kg. Further, in data set [6], the half-life was 19.2 min. In data set [6], this molecule returned a bioavailability of 67.1%.
On to `Cc1c(CN(C)C(=O)/C=C/c2cnc3c(c2)C2(CCC2)C(=O)N3)oc2ccccc12` [VT-02-00092, (E)-N-methyl-N-((3-methylbenzofuran-2-yl)methyl)-3-(2′-oxo-1′,2′-dihydrospiro[cyclobutane-1,3′-pyrrolo[2,3-b]pyridine]-5′-yl)acrylamide], for which the MIC is 60 ng/mL (≈ 0.149 µM) in data set [1], 60 ng/mL (≈ 0.149 µM) in data set [2], 250 ng/mL in data set [3] and 3.9 ng/mL in data set [5] (setting [9]). In data set [4], the “Metabolic stability (mouse liver microsomes) % of compound remaining after 30 minutes” value is 22%.
As to `Cc1c(CN(C)C(=O)/C=C/c2cnc3c(c2)C2(CCCCC2)C(=O)N3)sc2ccccc12` [VT-02-00075, (E)-N-methyl-N-((3-methylbenzo[b]thiophen-2-yl)methyl)-3-(2′-oxo-1′,2′-dihydrospiro[cyclohexane-1,3′-pyrrolo[2,3-b]pyridine]-5′-yl)acrylamide], the MIC was 500 ng/mL (≈ 1.12 µM) in data set [1]; 500 ng/mL (≈ 1.12 µM) in data set [2]; 4000 ng/mL in data set [3]; less than 0.00191 ng/mL in data set [5] (setting [8]); 0.00763 ng/mL in data set [5] (setting [9]). For the same molecule, the “Metabolic stability (mouse liver microsomes) % of compound remaining after 30 minutes” value in data set [4] is 5%.
Turning to `Cc1c(CN(C)C(=O)/C=C/c2cnc3c(c2)C2(CCCC2)C(=O)N3)sc2ccccc12` [VT-02-00074, (E)-N-methyl-N-((3-methylbenzo[b]thiophen-2-yl)methyl)-3-(2′-oxo-1′,2′-dihydrospiro[cyclopentane-1,3′-pyrrolo[2,3-b]pyridine]-5′-yl)acrylamide], the MIC in data set [1] is 60 ng/mL (≈ 0.139 µM); in data set [2], 60 ng/mL (≈ 0.139 µM); in data set [3], 1000 ng/mL; in data set [5] (setting [8]), 7.8 ng/mL; in data set [5] (setting [9]) it was 60 ng/mL. For the same molecule, the “Metabolic stability (mouse liver microsomes) % of compound remaining after 30 minutes” value in data set [4] was 8%.
In the case of `Cc1ccc2oc(CN(C)C(=O)/C=C/c3ccc4c(c3)C3(CCC3)C(=O)N4)c(C)c2c1` [VT-02-00086, (E)-N-((3,5-dimethylbenzofuran-2-yl)methyl)-N-methyl-3-(2′-oxospiro[cyclobutane-1,3′-indoline]-5′-yl)acrylamide], the MIC came out at 500 ng/mL (≈ 1.21 µM) in data set [1]; 500 ng/mL (≈ 1.21 µM) in data set [2]; 8000 ng/mL in data set [3]; 60 ng/mL in data set [5] (setting [8]); 500 ng/mL in data set [5] (setting [9]). The “Metabolic stability (mouse liver microsomes) % of compound remaining after 30 minutes” value in data set [4] came out at 26%.
For the molecule `Cc1c(CN(C)C(=O)/C=C/c2cnc3c(c2)C(C)(C)C(=O)N3)sc2ccccc12` [VT-02-00069, (E)-3-(3,3-dimethyl-2-oxo-2,3-dihydro-1H-pyrrolo[2,3-b]pyridin-5-yl)-N-methyl-N-((3-methylbenzo[b]thiophen-2-yl)methyl)acrylamide], the MIC came to 15 ng/mL (≈ 0.037 µM) in data set [1]; 15 ng/mL (≈ 0.037 µM) in data set [2]; 1000 ng/mL in data set [3]; 0.2 ng/mL in data set [5] (setting [8]); 15 ng/mL in data set [5] (setting [9]). Besides, the “Metabolic stability (mouse liver microsomes) % of compound remaining after 30 minutes” value in data set [4] worked out at 10%.
